Measurements as given in US10980808B2, “Calmodulin inhibitors, Chk2 inhibitors and RSK inhibitors for the treatment of ribosomal disorders and ribosomapathies” (THE CHILDREN'S MEDICAL CENTER CORPORATION, priority 2016, dated 2021).
Entries after “also recorded” stand apart in the source; their conditions may differ.

Legend:
[1] = tested on: rps29−/− zebrafish embryos; test: hemoglobin (benzidine staining) rescue in rps29-/- zebrafish embryos; assay type: in vivo; settings: for hemoglobin (Hb) in rps29−/− embryos: benzidine staining; for Hb increase at low concentrations: rps29−/− embryos, compared with positive control fluphenazine / with DB-4-089
6 dpf WT zebrafish = test: zebrafish behavior tracking (proxy for BBB permeation); settings: for zebrafish movement / swimming behavior vs DMSO: 6 dpf, drug in fish water, tracked 1-2 h
p70S6K = p70S6K (Homo sapiens, UniProt P23443); test: in vitro kinase profiling (Thermo Fisher SelectScreen), p70S6K; assay type: biochemical
Text: We asked if CaM and Chk2 inhibitors are blocking specific kinases. The known kinases that phosphorylate S392 are CK2 and p38. […] Thus, the question became what is TFP inhibiting upstream? Is it inhibiting a kinase that phosphorylates S392? We submitted CaM and Chk2 inhibitors for Kinase profiling using Thermo Fisher's SelectScreen.

[2] = tested on: rps29−/− zebrafish embryos; test: chemical screen: rescue of morphological, hematopoietic and endothelial defects of rps29-/- embryo; assay type: in vivo
Rps19 deficient mice = test: DBA dox-inducible RPS19 knockdown mouse model; assay type: in vivo; settings: treated every other day for 2 weeks
[3] = tested on: RPS19 deficient CD34 cells; test: phosphorylation in RPS19 deficient CD34 cells; assay type: cell-based, human
Text: FIG. 18 is a schematic of the assay of RSK activation in human cells. The most relevant in vitro model in the blood field is primary human cells-such as Peripheral blood mononuclear cells (PBMCs). […] FIG. 19B schematic ov RP deficiency. TFP treatment reduces P-RPS6 and P-p53 […] and p53 total levels.

[4] = tested on: 293T cells with RPS19 shRNA; test: phosphorylation in 293T cells with RPS19 shRNA; assay type: cell-based, human; settings: for phosphorylation of p70S6K: during ribosomal protein deficiency
Text: FIGS. 17A to 17C are scehmatics and gels that indicate CaM and Chk2 inhibitors block phosphorylation of p70S6K selectively during RP deficiency. FIG. 17A schematic, we used 293T cells, and induced ribosomal protein deficiency using shRNA for RPS19 or Luc for control. […] ERK phosphorylation is increased by these inhibitors, which is also seen with RSK inhibitors. FIG. 17C a gel of the effect of Luc and […] shRNA on phosphorylated S392. […] RSK inhibitors increase ERK phosphorylation through a negative feedback loop. So TFP and BML similarly affect ERK in the same manner.

[5] = tested on: RPS19 deficient cord blood derived CD34+ cells; test: human in vitro model of DBA: cord blood CD34+ cells with RPS19 shRNA, erythroid differentiation; assay type: cell-based
[6] = tested on: p53 phosphorylation in 293T cells; test: mass spectrometry of p53 post-translational modifications in 293T cells; assay type: cell-based; settings: 3 hours; for percentage of peptides containing phosphorylated serine 392 of p53: WT-p53-GFP
Experimental: FIGS. 10A to 10C show schematics, graphs and gels that indicate CaM and Chk2 inhibitors reduce S392 phosphorylation. FIG. 10A is a schematic of conserved regulatory region phosphorylation sites. FIG. 10B are graphs of an unbiased mass spectrometry analysis looking for post-translational modifications of p53 altered in the presence of the CaM inhibitor TFP or the Chk2 inhibitor, BML. 293T cells were transfected with WT-p53 tagged with GFP and treated with TFP or BML for 3 hours. P53 was immunoprecipitated using an antibody against GFP and was submitted for mass spec analysis. […] By two different mass spec methods, either conventional mass spec or by TMT tagging of the peptide we found in both cases the percentage of peptides containing phosphorylated serine 392 was reduced in TFP and BML treated samples (FIG. 10B). It was also noted that this serine is conserved in both zebrafish and mouse (FIG. 10A). FIG. 10C is a Western Blot that indicates phosphorylation decrease.

p53 in Saos2 cells = test: p53 activity in Saos2 cells transfected with p53 constructs (qPCR); assay type: cell-based
Experimental: FIG. 9A a schematic of wild type P53 and deleted regulatory region p53 (p53 reg). FIG. 9[…] of procedure. Saos2 cells (p53-null cells) transiently transfected with p53 constructs and were treated with vehicle or 20 μM TFP for 24 hours. TFP activity on p53 was assessed by the ability of TFP to reduce p21 mRNA levels measured by qPCR. FIG. 9C is a graph of p21 RNA expression. Since our compound decreases p53 activity, we wanted to determine the region of p53 is responsible for CaM inhibitor activity. […] Next, the c-terminal 30 amino acids from p53 (363-393) were removed. This construct is p53-reg. […] FIGS. 11A to 11C are schematics and graphs which indicate that p53 S392 phhosphomimetic prevents TFP from reducing p53 activity. To confirm the importance of the ability of CaM inhibitors to block the phosphorylation of p53, we created phosphomimetic p53 by replacing […], which mimics constitutive phosphorylation. We also generated a control phosphomimetic p53 where […]. This mutant should have no effect on the ability of TFP to reduce p53 activity. FIG. 11A is a schematic of experiment used to test these mutants, we transiently transfected, WT p53, […] and […] into Saos2 cells and treated them with vehicle or TFP. To assess p53 activity, we examined p21 and MDM2 mRNA levels. FIG. 11B is a graph of p21 Expression. FIG. 11C is a graph of MDM2 mRNA expression. […] Confirming that blocking the S392 phosphorylation is important for the activity of TFP.

[7] = tested on: RPS19 shRNA CD34+ peripheral blood mononuclear cells; test: primary human in vitro differentiation model of DBA: CD34+ PBMCs with RPS19 shRNA, CD71+ flow cytometry; assay type: cell-based; settings: treated once for 5 days
Text: FIG. 40 is a schematic of the testing of novel phenothiazine derivatives in a human in vitro model of DBA. Primary human peripheral blood mononuclear cells (PBMCs) are transduced with RPS19-GFP shRNA to make a ribiosomal protein deficiency. Cells are transferred to eyrthroid differentiation media and treated once for 5 days with Drug. Cells are harvested and analyzed for erythroid precursors by flow cytomety for CD71^+ cells.
We next tested three derivatives in our primary human in vitro differentiation model of DBA. To do this we expanded CD34+ peripheral blood mononuclear cells in culture for 2 days and induced ribosomal protein deficiency with a lentirvirus containing RPS19 shRNA (FIG. 40). After 3 days the cells are placed into erythroid differentiation media with or without the novel derivatives and cultured for 5 days. Erythroid differentiation is then assessed by flow cytometry analysis for the transferrin receptor, CD71+. […] In addition, the novel derivatives increased the absolute erythroid number compared to DMSO treated (FIG. 41). […] A table summarizing the activity of the compounds is found in FIG. 43.

[8] = Saos2 cells with WT p53 or S15D p53

p70S6K, sequence (P23443 whole entry): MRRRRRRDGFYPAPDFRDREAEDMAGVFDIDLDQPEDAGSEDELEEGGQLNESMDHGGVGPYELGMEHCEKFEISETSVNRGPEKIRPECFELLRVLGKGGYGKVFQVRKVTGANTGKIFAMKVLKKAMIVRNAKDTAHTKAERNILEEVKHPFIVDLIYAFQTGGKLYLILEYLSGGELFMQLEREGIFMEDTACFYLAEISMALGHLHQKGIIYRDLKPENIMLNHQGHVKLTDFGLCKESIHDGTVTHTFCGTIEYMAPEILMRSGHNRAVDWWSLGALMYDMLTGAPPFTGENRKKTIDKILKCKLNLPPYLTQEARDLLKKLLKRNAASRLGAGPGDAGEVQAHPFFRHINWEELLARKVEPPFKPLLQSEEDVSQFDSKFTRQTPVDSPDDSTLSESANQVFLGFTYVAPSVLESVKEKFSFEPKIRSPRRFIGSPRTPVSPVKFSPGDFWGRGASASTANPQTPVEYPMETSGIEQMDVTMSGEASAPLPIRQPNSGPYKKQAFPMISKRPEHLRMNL

NCCCCCCNS(=O)(=O)c1cccc2c(Cl)cccc12 [W-7]
hemoglobin (Hb) in rps29−/− embryos [1]: rescue Hb

Clc1ccc2c(c1)N(CCCN1CCOCC1)c1ccccc1S2 [compound 086]
Hb increase at low concentrations [1]: did not increase Hb at the same low concentrations

CC(C)(C)OC(=O)CCN1CCN(CCCN2c3ccccc3Sc3ccc(Cl)cc32)CC1 [compound 083]
Hb increase at low concentrations [1]: did not increase Hb at the same low concentrations

Clc1ccc2c(c1)N(CCCN1CCN(CCNCCCOCCOCCOCCCNC(c3ccccc3)(c3ccccc3)c3ccccc3)CC1)c1ccccc1S2 [221E]
zebrafish movement / swimming behavior vs DMSO (6 dpf WT zebrafish): more erratic activity

Clc1ccc2c(c1)N(CCCN1CCCCC1)c1ccccc1S2 [compound 084]
Hb increase at low concentrations [1]: did not increase Hb at the same low concentrations

NC1=N/C(=C2/CCNC(=O)c3cc4[nH]c5ccccc5c4cc32)C(=O)N1 [III]
percent inhibition of in vitro kinase activity, p70S6K (p70S6K): inhibition
hemoglobin (Hb) in rps29−/− embryos [1]: Resues Hb; also recorded: rescue Hb

CCc1cncnc1N1CCN(Cc2nc3cc(C(F)(F)F)ccc3[nH]2)CC1 [PF, 2-[[4-(5-Ethylpyrimidin-4-yl)piperazin-1-yl]methyl]-5-(trifluoromethyl)-1H-benzo[d]imidazole]
hemoglobin (Hb) in rps29−/− embryos [1]: increase Hb

O=C(O)CCC(=O)NCCN1CCN(CCCN2c3ccccc3Sc3ccc(Cl)cc32)CC1 [PerSucc]
zebrafish movement / swimming behavior vs DMSO (6 dpf WT zebrafish): less active and rest more than DMSO treated fish
rescuing morphological defects and hematopoietic and endothelial defects [2]: work particularly well
hemoglobin (Hb) in rps29−/− embryos [1]: dramatic rescue of Hb expression; also recorded: increase Hb

NCCNS(=O)(=O)c1cccc2c(Cl)cccc12 [A-3]
hemoglobin (Hb) in rps29−/− embryos [1]: rescue Hb

CN1CCN(CCCN2c3ccccc3Sc3ccc(C(F)(F)F)cc32)CC1 [TFP, trifluoperazine]
hemoglobin levels (Rps19 deficient mice): significantly increases
p21 mRNA levels (p53 activity) in bone marrow (Rps19 deficient mice): reduced; also recorded: decreases
red blood cell number (Rps19 deficient mice): significantly increases
P-RPS6 [3]: reduces
P-p53 S392 [3]: reduces
p53 total levels [3]: reduces
ERK phosphorylation [4]: increased
phosphorylation of p70S6K [4]: selectively inhibited
% erythroid precursor cells (CD71+) on day 12 [5]: increases
p21 mRNA levels [5]: dose dependently decreases
hemoglobin (Hb) in rps29−/− embryos [1]: rescue Hb
percentage of peptides containing phosphorylated Serine 6 of p53 [6]: did not change
percentage of peptides containing phosphorylated Serine 315 of p53 [6]: did not change
percentage of peptides containing phosphorylated serine 392 of p53 [6]: reduced
ability of p53 to form a tetramer (p53 in Saos2 cells): did not inhibit
MDM2 mRNA levels (p53 in Saos2 cells; [8]): able to reduce
p21 mRNA levels (p53 in Saos2 cells; [8]): able to reduce
MDM2 mRNA levels (p53 in Saos2 cells; Saos2 cells with p53 S392D): unable to reduce
p21 mRNA levels (p53 in Saos2 cells; Saos2 cells with p53 S392D): unable to reduce

OCCN1CCN(CCCN2c3ccccc3Sc3ccc(C(F)(F)F)cc32)CC1 [FLU, fluphenazine]
hemoglobin (Hb) in rps29−/− embryos [1]: rescues better than either RSK or p70S6K inhibitor alone
hemoglobin (Hb) in rps29−/− embryos ([1]; listed as fluphenazine): increase Hb

NC(=O)c1ccc2nc(-c3ccc(Oc4ccc(Cl)cc4)cc3)[nH]c2c1 [BML]
ERK phosphorylation [4]: increased
phosphorylation of p70S6K [4]: selectively inhibited
percentage of peptides containing phosphorylated Serine 6 of p53 [6]: did not change
percentage of peptides containing phosphorylated Serine 315 of p53 [6]: did not change
percentage of peptides containing phosphorylated serine 392 of p53 [6]: reduced

CC(C)NCCCN1c2ccccc2Sc2ccc(Cl)cc21 [088-3]
rescuing morphological defects and hematopoietic and endothelial defects [2]: work particularly well
Hb increase at low concentrations [1]: increase Hb at lower concentrations than the positive control phenothiazine

CN1CCC(N(CCCN2c3ccccc3Sc3ccc(Cl)cc32)CCCN2c3ccccc3Sc3ccc(Cl)cc32)CC1 [compound 089]
percentage of erythroid precursor cells (CD71+) compared to DMSO [7]: increased the percentage of erythroid precursor cells
percentage of erythroid precursor cells (CD71+) compared to DMSO ([7]; listed as DB-4-089): increased eyrthroid differentiation
zebrafish movement / swimming behavior vs DMSO (6 dpf WT zebrafish): altered behavior; also recorded: alters movement
toxicity in behavior assay (6 dpf WT zebrafish; highest dose): toxic at the highest dose
rescuing morphological defects and hematopoietic and endothelial defects [2]: work particularly well
Hb increase at low concentrations [1]: increase Hb at lower concentrations than the positive control phenothiazine
Hb increase at low concentrations ([1]; listed as DB-4-089): increased Hb at low concentrations

OCCN1CCN(CCCN2c3ccccc3Sc3ccc(Cl)cc32)CC1 [perphenizine]
hemoglobin (Hb) in rps29−/− embryos [1]: increase Hb

CC(C)N(CCCN1c2ccccc2Sc2ccc(Cl)cc21)CCCN1c2ccccc2Sc2ccc(Cl)cc21 [088-2]
percentage of erythroid precursor cells (CD71+) compared to DMSO [7]: increased the percentage of erythroid precursor cells
rescuing morphological defects and hematopoietic and endothelial defects [2]: work particularly well
Hb increase at low concentrations [1]: increase Hb at lower concentrations than the positive control phenothiazine
